Active and inactive are the calls of the source.
Columns and labels:
Protein Wnt-3a = Protein Wnt-3a (Mus musculus, UniProt P27467); assay: antagonism of Wnt3a pathway luciferase reporter – Wnt-LIGHT cells, luminescence, selectivity assay for Gli-SUFU antagonist project, dose response (AID 651570); type: functional; conditions: read-out: IC50_Mean;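 further: Wnt-LIGHT reporter cells stimulated with conditioned medium from Wnt3a-producing cells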
[1] = non-specific 3'UTR reporter inhibition in Clone20-Shn3RL – cell-based, Renilla luciferase, cherry-picked, counter-screen for Shn3 inhibitor project, dose response (AID 624133); type: functional
[2] = HIV-1 AD8 envelope cell-cell fusion blockers – cherry-pick, dose response (AID 652062); type: functional, cell-based;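 further: luciferase signal from cell-cell fusion driven by HIV-1 clade B AD8 Env; potency is for inhibitors of fusion seen as a drop in luminescence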
[3] = loss of viability in HepG2 cells – cell-based, CellTiter-Glo, cherry-picked, cytotoxicity control for Shn3 inhibitor project, dose response (AID 624134); type: functional
[4] = reduction of Shn3 3'UTR-driven luciferase in osteoblasts – cell-based, Clone20 osteoblasts, firefly luciferase, cherry-picked, dose response (AID 624132); type: functional;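 further: firefly luciferase luminescence from reporter carrying the Shn3 3'UTR in osteoblasts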
Fatty acid synthase [5] = target: T1, Fatty acid synthase (Homo sapiens, UniProt P49327); assay: inhibition of human FAS-TE enzyme activity – biochemical, kinetic fluorescence intensity, dose response (AID 624326); type: functional;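 further: rate of fluorescence rise from hydrolysis of a fluorogenic O-methyl fluorescein ester substrate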
T1 sequence (P49327 whole entry): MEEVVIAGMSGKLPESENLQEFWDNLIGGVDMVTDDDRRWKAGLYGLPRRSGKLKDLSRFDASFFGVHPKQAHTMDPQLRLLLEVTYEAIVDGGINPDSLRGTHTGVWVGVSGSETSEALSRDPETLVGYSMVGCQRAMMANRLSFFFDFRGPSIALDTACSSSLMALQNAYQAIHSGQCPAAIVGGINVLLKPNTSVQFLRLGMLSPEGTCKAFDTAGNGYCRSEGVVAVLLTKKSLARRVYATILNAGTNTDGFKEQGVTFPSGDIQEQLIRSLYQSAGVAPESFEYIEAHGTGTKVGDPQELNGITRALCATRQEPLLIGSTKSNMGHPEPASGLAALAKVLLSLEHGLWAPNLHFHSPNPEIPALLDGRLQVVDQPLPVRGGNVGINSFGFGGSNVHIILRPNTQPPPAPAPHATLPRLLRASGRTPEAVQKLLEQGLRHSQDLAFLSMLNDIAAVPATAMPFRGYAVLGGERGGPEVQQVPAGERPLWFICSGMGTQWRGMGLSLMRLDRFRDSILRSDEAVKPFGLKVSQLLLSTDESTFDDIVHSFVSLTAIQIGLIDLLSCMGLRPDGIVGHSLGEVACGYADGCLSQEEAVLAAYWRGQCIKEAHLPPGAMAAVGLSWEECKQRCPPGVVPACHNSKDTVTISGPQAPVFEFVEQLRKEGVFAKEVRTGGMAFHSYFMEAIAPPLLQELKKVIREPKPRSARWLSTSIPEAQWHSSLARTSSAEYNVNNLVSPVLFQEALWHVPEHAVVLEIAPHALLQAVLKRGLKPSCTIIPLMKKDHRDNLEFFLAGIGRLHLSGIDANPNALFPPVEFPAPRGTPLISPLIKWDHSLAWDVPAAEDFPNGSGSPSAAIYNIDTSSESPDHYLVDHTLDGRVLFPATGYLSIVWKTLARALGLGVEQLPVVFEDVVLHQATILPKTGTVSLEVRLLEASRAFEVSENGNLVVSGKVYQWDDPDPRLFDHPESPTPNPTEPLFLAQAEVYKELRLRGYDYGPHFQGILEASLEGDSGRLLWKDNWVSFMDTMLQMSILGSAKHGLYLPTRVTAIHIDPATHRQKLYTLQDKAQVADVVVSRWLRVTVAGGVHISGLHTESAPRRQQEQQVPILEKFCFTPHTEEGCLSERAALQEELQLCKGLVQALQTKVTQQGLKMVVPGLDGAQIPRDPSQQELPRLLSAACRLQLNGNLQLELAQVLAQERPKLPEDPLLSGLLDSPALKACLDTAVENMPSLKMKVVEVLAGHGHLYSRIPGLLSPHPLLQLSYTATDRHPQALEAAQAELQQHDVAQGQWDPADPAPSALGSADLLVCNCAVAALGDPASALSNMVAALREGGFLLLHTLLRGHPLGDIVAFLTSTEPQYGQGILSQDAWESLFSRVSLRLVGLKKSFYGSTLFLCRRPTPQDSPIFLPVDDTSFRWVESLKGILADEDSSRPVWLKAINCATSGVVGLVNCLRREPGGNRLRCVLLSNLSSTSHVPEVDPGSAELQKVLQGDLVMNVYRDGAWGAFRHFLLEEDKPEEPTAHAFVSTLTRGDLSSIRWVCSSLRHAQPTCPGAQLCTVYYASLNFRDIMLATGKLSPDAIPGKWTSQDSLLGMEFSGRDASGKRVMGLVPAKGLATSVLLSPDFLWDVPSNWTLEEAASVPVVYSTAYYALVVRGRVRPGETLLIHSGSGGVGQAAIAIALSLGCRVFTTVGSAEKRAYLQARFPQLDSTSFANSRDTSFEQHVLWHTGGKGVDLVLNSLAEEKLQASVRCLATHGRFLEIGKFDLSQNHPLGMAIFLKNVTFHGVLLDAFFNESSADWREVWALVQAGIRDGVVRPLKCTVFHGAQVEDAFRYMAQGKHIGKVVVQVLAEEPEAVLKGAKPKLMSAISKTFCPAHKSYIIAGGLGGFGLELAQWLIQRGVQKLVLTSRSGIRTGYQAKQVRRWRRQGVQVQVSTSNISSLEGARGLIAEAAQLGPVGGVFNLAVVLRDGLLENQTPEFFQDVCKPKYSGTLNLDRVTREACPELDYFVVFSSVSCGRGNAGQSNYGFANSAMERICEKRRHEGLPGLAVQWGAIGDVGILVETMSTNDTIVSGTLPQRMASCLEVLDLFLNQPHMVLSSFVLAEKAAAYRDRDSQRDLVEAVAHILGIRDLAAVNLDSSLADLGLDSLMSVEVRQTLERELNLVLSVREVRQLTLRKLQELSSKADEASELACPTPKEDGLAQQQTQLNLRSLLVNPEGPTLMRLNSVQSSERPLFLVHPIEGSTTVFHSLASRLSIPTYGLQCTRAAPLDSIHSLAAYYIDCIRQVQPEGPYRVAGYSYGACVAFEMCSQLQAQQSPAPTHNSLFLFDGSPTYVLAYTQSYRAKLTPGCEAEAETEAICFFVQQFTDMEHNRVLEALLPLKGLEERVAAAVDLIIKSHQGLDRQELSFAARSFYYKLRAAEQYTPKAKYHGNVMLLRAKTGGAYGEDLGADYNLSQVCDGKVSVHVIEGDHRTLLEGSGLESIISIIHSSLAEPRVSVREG

Fatty acid synthase [6] = target: T1, Fatty acid synthase; assay: inhibition of human FAS-TE enzyme activity – biochemical, endpoint fluorescence intensity, uHTS hits, dose response (AID 624327); type: functional;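 further: fluorescence from hydrolysis of an O-methyl fluorescein acyl ester substrate by the enzyme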
[7] = target: T2, Corticotropin-releasing factor receptor 2/Corticotropin-releasing factor-binding protein (Homo sapiens, UniProt P24387+Q13324); assay: Dose Response confirmation of uHTS hits for small molecule antagonists of the CRF-binding protein and CRF-R2 receptor complex.; type: functional; conditions: read-out: IC50_Mean
T2 sequence (Q13324 whole entry): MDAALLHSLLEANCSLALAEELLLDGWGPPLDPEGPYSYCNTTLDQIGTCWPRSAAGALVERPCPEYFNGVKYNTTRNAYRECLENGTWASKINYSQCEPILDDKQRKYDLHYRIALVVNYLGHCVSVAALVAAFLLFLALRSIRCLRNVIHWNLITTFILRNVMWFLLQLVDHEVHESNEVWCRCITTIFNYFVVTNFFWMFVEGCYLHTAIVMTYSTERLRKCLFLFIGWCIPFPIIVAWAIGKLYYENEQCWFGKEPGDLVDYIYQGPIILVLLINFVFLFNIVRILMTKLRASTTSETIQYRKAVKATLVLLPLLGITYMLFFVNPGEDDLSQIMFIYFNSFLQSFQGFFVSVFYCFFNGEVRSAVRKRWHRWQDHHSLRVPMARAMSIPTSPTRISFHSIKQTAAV
T2 sequence (P24387 whole entry): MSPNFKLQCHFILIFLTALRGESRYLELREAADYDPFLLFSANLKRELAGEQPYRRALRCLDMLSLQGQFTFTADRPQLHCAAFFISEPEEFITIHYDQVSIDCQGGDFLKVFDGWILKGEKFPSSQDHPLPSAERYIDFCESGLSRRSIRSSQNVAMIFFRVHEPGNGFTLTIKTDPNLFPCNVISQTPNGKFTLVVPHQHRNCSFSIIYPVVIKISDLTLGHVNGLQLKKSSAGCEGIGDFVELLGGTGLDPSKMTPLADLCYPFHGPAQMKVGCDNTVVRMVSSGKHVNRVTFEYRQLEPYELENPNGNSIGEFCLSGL

[8] = target: T2, Corticotropin-releasing factor receptor 2/Corticotropin-releasing factor-binding protein; assay: activators of CRF receptor 2 with binding protein – uHTS hits, confirmation (AID 602473); type: functional; conditions: read-out: EC50_Mean
Protein skinhead-1 = target: T3, Protein skinhead-1 (Caenorhabditis elegans, UniProt P34707); type: functional
T3 sequence (P34707 whole entry): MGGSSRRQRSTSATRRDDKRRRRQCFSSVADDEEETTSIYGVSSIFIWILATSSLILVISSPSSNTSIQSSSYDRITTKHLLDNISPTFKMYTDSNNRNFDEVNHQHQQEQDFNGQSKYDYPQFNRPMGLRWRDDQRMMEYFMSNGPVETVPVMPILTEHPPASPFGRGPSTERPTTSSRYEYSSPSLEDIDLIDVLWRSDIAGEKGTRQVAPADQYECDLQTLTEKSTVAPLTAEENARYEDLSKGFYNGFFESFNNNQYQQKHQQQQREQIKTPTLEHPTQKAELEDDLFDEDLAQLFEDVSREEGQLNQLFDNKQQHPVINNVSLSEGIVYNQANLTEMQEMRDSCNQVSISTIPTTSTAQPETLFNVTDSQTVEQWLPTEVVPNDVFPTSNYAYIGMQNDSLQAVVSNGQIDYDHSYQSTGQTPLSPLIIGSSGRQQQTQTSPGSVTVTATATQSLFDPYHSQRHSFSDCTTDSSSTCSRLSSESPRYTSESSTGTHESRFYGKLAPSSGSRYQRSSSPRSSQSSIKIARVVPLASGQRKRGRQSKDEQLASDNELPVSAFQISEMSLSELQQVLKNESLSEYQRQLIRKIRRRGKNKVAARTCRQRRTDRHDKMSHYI

[9] = blockers of HIV-1 envelope-mediated cell-cell fusion – cherry-pick, dose response (AID 652057); type: functional, cell-based
[10] = blockers of HIV-1 ZM109 envelope-driven cell-cell fusion – HeLa effector, CEM target cells, luciferase, cherry-pick, dose response (AID 652058); type: functional, cell-based;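 further: luciferase signal from HIV-1 Env mediated cell-cell fusion of effector and target cells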
[11] = off-target signal loss in HeLa-CEM21 co-culture – HeLa F-luc CTL cells, cherry-picked, counter-screen for HIV-1 Env fusion inhibitor project, dose response (AID 652040); type: functional, cell-based;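 further: potency for signal decrease marking cytotoxic or nonspecific inhibition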
P388 = assay: cells; type: functional; conditions: Mus musculus
P388/ADR = assay: cells; type: functional; conditions: Mus musculus
SN12K1 = assay: cells; type: functional; conditions: Homo sapiens
Vero = assay: viability of Vero cells under compound – cytotoxicity control for flavivirus capping enzyme inhibitors (AID 588742); type: functional; conditions: Chlorocebus sabaeus
[12] = THP-1 cell cytotoxicity, dose response, cytotoxicity control for non-replicating M. tuberculosis project (AID 489025); type: functional
[13] = Vero E6 cell cytotoxicity, dose response, cytotoxicity control for non-replicating M. tuberculosis project, secondary assay (AID 492998); type: functional, VeroE6; conditions: Vero C1008
[14] = HepG2 cell cytotoxicity, dose response, cytotoxicity control for non-replicating M. tuberculosis project (AID 489018); type: functional; conditions: Mycobacterium tuberculosis
[15] = microbe, parasite or virus in culture; type: functional; conditions: Mycobacterium tuberculosis
cells = type: functional
[16] = target: T4, Zinc finger protein mex-5 (Caenorhabditis elegans, UniProt Q9XUB2); assay: potency of MEX-5 RNA-binding blockers – biochemical, C. elegans, fluorescence polarization, dose response (AID 1960)
T4 sequence (Q9XUB2 whole entry): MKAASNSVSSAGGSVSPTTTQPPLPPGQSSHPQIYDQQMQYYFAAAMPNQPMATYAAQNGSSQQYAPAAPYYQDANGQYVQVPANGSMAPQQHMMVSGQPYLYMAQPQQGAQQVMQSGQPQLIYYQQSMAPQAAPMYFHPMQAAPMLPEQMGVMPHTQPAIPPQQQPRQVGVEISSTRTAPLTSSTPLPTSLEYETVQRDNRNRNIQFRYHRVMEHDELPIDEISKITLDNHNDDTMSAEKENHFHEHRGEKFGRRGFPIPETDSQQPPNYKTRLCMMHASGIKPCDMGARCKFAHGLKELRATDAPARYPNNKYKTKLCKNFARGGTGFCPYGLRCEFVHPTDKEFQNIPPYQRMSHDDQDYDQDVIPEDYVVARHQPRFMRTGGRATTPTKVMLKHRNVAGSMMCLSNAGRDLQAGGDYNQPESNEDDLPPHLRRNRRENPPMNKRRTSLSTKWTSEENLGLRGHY

[17] = target: T5, RNA-binding protein pos-1 (Caenorhabditis elegans, UniProt G5EF15); assay: disruptors of C. elegans POS-1 RNA interaction – biochemical, fluorescence polarization, dose response (AID 1964);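 further: purified POS-1 fused to maltose binding protein made in E. coli; potency of compounds blocking POS-1 binding to fluorescent RNA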
T5 sequence (G5EF15 whole entry): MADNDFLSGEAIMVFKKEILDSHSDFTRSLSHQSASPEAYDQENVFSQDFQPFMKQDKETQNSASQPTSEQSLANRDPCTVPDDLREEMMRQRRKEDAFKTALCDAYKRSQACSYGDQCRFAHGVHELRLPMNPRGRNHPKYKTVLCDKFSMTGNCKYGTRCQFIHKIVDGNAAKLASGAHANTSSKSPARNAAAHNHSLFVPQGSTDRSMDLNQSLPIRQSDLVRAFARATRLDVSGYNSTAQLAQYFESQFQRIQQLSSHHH

[18] = target: Heat shock protein HSP 90-alpha (Homo sapiens, UniProt P07900); type: functional, organism-based

Chain of Protein Wnt-3a (P27467 whole entry): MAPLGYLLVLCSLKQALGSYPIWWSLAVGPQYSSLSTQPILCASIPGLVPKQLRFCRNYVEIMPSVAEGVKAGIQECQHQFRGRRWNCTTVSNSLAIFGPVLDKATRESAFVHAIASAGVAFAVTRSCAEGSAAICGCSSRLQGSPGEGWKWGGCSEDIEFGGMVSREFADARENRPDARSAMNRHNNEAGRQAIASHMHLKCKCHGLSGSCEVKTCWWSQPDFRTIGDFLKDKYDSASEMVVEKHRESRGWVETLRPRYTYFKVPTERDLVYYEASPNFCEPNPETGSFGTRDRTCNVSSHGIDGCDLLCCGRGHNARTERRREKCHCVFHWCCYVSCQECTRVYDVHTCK

Compound: O=C(Cc1ccc(Cl)cc1Cl)Nc1ccncc1
- IC50 (Protein Wnt-3a): 3.6 µM (active)
- AC50 [1]: 6.34 µM (active)
- AC50 [2]: 9.95 µM (active)
- AC50 [3]: 42.9 µM (active)
- AC50 [4]: 2.56 µM (active)

Compound: Cc1ccc(O)c(NC(=O)c2cc([N+](=O)[O-])ccc2Cl)c1
- IC50 (Fatty acid synthase [5]): 15.8 µM (active)
- IC50 (Fatty acid synthase [6]): 13.4 µM (active)

Compound: Cn1nnc2cc(C(=O)NCCC3=CCCCC3)ccc21
- IC50 [7]: > 47.1 µM (inactive)
- EC50 [8]: > 53 µM (inactive)
- IC50 (Protein skinhead-1): > 100 µM (inactive)

Compound: CC1(C)C2CCC1(C)C(OCCNCCOC(=O)Nc1ccccc1)C2 (configuration not stated)
- AC50 [9]: 8.49 µM (active)
- AC50 [10]: 8.26 µM (active)
- AC50 [2]: 27.5 µM (active)
- AC50 [11]: 27.6 µM (active)

Compound: Nc1nc(N)c2cc(CNc3ccc(C(=O)NC(CC(=O)O)C(=O)O)c(Cl)c3)ccc2n1 (configuration not stated)
- GI50 (P388): < 0.01 µM (active)
- GI50 (P388/ADR): < 0.01 µM (active)
- GI50 (SN12K1): 0.014 µM (active)

Compound: Cn1c(=O)c2c(nc(NCCOc3ccc(C(C)(C)C)cc3)n2C)n(C)c1=O
- IC50 (Protein Wnt-3a): 1.2 µM (active)

Compound: Cc1ccc(/C=C/c2nc3ccccc3[nH]2)o1
- CC50 (Vero): > 40 µM (active)

Compound: Cc1cc(C)c(C(=O)COC(=O)c2cc([N+](=O)[O-])ccc2NCCO)cc1C
- IC50 (Fatty acid synthase [5]): 13.3 µM (active)
- IC50 (Fatty acid synthase [6]): 8.07 µM (active)

Compound: CC1(C(=O)N/N=C/c2cc3c(cc2Br)OCO3)CC1(Br)Br (configuration not stated)
- AC50 [9]: 3.9 µM (active)
- AC50 [10]: 2.59 µM (active)
- AC50 [2]: 15.2 µM (active)
- AC50 [11]: 9.4 µM (active)

Compound: C/C(=N\NC(=O)c1cc2ccccc2cc1O)c1ccc(C)o1
- CC50 [12]: 21.9 µM (active)
- CC50 [13]: 16 µM (active)
- CC50 [14]: > 20 µM (active)
- CC50 [15]: 22.7 µM (active)
- CC50 (Vero): 32 µM (active)
- IC50 (cells): 6.26 µM (active)

Compound: CCCCN1C(=O)/C(=C/C=C2\Oc3ccccc3N2CC)SC1=S
- EC50 [16]: > 300 µM (not active)
- EC50 [17]: 48.2 µM (active)
- AC50 [18]: 171 µM (active)

Compound: S=P1(Sc2ccccc2)Oc2ccc3ccccc3c2-c2c(ccc3ccccc23)O1
- GI50 (P388): > 100 µM (inactive)
- GI50 (P388/ADR): > 100 µM (inactive)
- GI50 (SN12K1): > 100 µM (inactive)

Source: ChEMBL document CHEMBL1201862, “PubChem BioAssay data set” (2004)
